Reference: patent US12077503B2, “Substituted cyclic amides and their use as herbicides” (FMC CORPORATION, priority 2015, dated 2024)
Read-outs that look alike come from different tables or passages of the source.

How the values were obtained:
Assay in all cases: Test A preemergence
Format in all cases: in vivo
[1] = tested on: barnyardgrass (Echinochloa crus-galli); settings: Echinochloa crus-galli, pre-emergence, 240 h; for pest or weed control at 500 g/ha: 500 g ai/ha; for pest or weed control at 125 g/ha: 125 g ai/ha
In short: (§1)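 Treatment is preemergence as a directed soil spray after planting, or postemergence at the one- to two-leaf stage, with test chemical in a non-phytotoxic solvent mixture plus surfactant. Plants stay in the greenhouse about 10 d before visual injury scoring on a 0 to 100 scale versus untreated controls.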

[2] = tested on: ragweed (common ragweed, Ambrosia elatior); settings: Ambrosia artemisiifolia, pre-emergence, 240 h; for pest or weed control at 500 g/ha: 500 g ai/ha; for pest or weed control at 125 g/ha: 125 g ai/ha
In short: as §1

[3] = tested on: giant foxtail (Setaria faberii); settings: Setaria faberi, pre-emergence, 240 h; for pest or weed control at 500 g/ha: 500 g ai/ha; for pest or weed control at 125 g/ha: 125 g ai/ha
In short: as §1

[4] = tested on: pigweed (Amaranthus retroflexus); settings: Amaranthus retroflexus, pre-emergence, 240 h; for pest or weed control at 500 g/ha: 500 g ai/ha; for pest or weed control at 125 g/ha: 125 g ai/ha
[5] = tested on: ryegrass, Italian (Italian ryegrass, Lolium multiflorum); settings: Lolium multiflorum, pre-emergence, 240 h; for pest or weed control at 500 g/ha: 500 g ai/ha; for pest or weed control at 125 g/ha: 125 g ai/ha
In short: as §1

Kochia (Kochia scoparia) = settings: Bassia scoparia, pre-emergence, 240 h; for pest or weed control at 500 g/ha: 500 g ai/ha; for pest or weed control at 125 g/ha: 125 g ai/ha
In short: as §1

CN1C[C@H](c2cc(C(F)(F)F)cs2)[C@@H](C(=O)Nc2cccc(F)c2F)C1=O [Compound 1377]
pest or weed control at 500 g/ha ([1]; preemergence, 0 to 100 scale (0 no effect, 100 complete control), read-out: Plant response rating, Barnyardgrass): 100%
pest or weed control at 125 g/ha ([1]; Preemergence, 0 to 100 scale (0 no effect, 100 complete control), read-out: Plant response rating, Barnyardgrass): 80%
pest or weed control at 500 g/ha ([2]; preemergence, 0 to 100 scale (0 no effect, 100 complete control), read-out: Plant response rating, Ragweed): 30%
pest or weed control at 125 g/ha ([2]; Preemergence, 0 to 100 scale (0 no effect, 100 complete control), read-out: Plant response rating, Ragweed): 0%
pest or weed control at 500 g/ha ([3]; preemergence, 0 to 100 scale (0 no effect, 100 complete control), read-out: Plant response rating, Foxtail, Giant): 100%
pest or weed control at 125 g/ha ([3]; Preemergence, 0 to 100 scale (0 no effect, 100 complete control), read-out: Plant response rating, Foxtail, Giant): 100%
pest or weed control at 500 g/ha ([4]; preemergence, 0 to 100 scale (0 no effect, 100 complete control), read-out: Plant response rating, Pigweed): 40%
pest or weed control at 125 g/ha ([4]; Preemergence, 0 to 100 scale (0 no effect, 100 complete control), read-out: Plant response rating, Pigweed): 20%
pest or weed control at 500 g/ha ([5]; preemergence, 0 to 100 scale (0 no effect, 100 complete control), read-out: Plant response rating, Ryegrass, Italian): 50%
pest or weed control at 125 g/ha ([5]; Preemergence, 0 to 100 scale (0 no effect, 100 complete control), read-out: Plant response rating, Ryegrass, Italian): 20%
pest or weed control at 500 g/ha (Kochia (Kochia scoparia); preemergence, 0 to 100 scale (0 no effect, 100 complete control), read-out: Plant response rating, Kochia): 80%
pest or weed control at 125 g/ha (Kochia (Kochia scoparia); Preemergence, 0 to 100 scale (0 no effect, 100 complete control), read-out: Plant response rating, Kochia): 70%

CN1C[C@H](c2cccc(S(C)(=O)=O)c2)[C@@H](C(=O)Nc2cccc(F)c2F)C1=O (racemic) [Compound 777]
pest or weed control at 125 g/ha ([1]; preemergence, visual rating after approx. 10 d, 0 to 100 scale where 0 is no effect and 100 is complete control, read-out: Plant response rating, Barnyardgrass): 70%
pest or weed control at 500 g/ha ([1]; Preemergence, visual injury vs untreated controls after approximately 10 d, read-out: Barnyardgrass plant response rating (0 to 100 scale where 0 is no effect and 100 is complete control)): 100%
pest or weed control at 125 g/ha ([2]; preemergence, visual rating after approx. 10 d, 0 to 100 scale where 0 is no effect and 100 is complete control, read-out: Plant response rating, Ragweed): 0%
pest or weed control at 500 g/ha ([2]; Preemergence, visual injury vs untreated controls after approximately 10 d, read-out: Ragweed plant response rating (0 to 100 scale where 0 is no effect and 100 is complete control)): 0%
pest or weed control at 125 g/ha ([3]; preemergence, visual rating after approx. 10 d, 0 to 100 scale where 0 is no effect and 100 is complete control, read-out: Plant response rating, Foxtail, Giant): 80%
pest or weed control at 500 g/ha ([3]; Preemergence, visual injury vs untreated controls after approximately 10 d, read-out: Foxtail, Giant plant response rating (0 to 100 scale where 0 is no effect and 100 is complete control)): 100%
pest or weed control at 125 g/ha ([4]; preemergence, visual rating after approx. 10 d, 0 to 100 scale where 0 is no effect and 100 is complete control, read-out: Plant response rating, Pigweed): 0%
pest or weed control at 500 g/ha ([4]; Preemergence, visual injury vs untreated controls after approximately 10 d, read-out: Pigweed plant response rating (0 to 100 scale where 0 is no effect and 100 is complete control)): 40%
pest or weed control at 125 g/ha ([5]; preemergence, visual rating after approx. 10 d, 0 to 100 scale where 0 is no effect and 100 is complete control, read-out: Plant response rating, Ryegrass, Italian): 40%
pest or weed control at 500 g/ha ([5]; Preemergence, visual injury vs untreated controls after approximately 10 d, read-out: Ryegrass, Italian plant response rating (0 to 100 scale where 0 is no effect and 100 is complete control)): 70%
pest or weed control at 125 g/ha (Kochia (Kochia scoparia); preemergence, visual rating after approx. 10 d, 0 to 100 scale where 0 is no effect and 100 is complete control, read-out: Plant response rating, Kochia): 0%
pest or weed control at 500 g/ha (Kochia (Kochia scoparia); Preemergence, visual injury vs untreated controls after approximately 10 d, read-out: Kochia plant response rating (0 to 100 scale where 0 is no effect and 100 is complete control)): 0%
